In publication PMC12523147, “Thyroid hormone receptor beta signaling is a targetable driver of prostate cancer growth” (Molecular Cancer, 2025):

Target: T1, thyroid hormone receptor β (TRβ) (Homo sapiens, UniProt P10828)
T1 construct: gene THRB
Test: biochemical

T1 sequence (P10828 whole entry): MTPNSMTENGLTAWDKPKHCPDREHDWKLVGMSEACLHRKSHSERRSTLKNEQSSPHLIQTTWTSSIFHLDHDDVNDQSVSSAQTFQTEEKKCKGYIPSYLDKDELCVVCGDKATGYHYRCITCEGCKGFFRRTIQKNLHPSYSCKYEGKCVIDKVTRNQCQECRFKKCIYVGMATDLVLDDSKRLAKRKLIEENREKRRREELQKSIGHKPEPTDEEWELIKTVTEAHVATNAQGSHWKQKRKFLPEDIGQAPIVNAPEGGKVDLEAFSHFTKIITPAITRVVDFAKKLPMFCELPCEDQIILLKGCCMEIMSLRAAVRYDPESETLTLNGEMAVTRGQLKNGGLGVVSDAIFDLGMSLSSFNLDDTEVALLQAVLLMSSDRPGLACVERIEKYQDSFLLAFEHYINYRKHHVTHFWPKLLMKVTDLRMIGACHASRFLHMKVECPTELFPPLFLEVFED

`Cc1cc(OCC(=O)O)cc(C)c1Cc1cc(C#Cc2ccc([N+](=O)[O-])cc2)c(O)c(C(C)C)c1` [NH-3] was tested, and the Ki was 1.31 nM.
